Reference: the NIST ThermoML archive (doi:10.1016/j.tca.2019.05.006)
Numbers after ± are expanded uncertainties.

Assay: molar heat capacity at constant pressure
Conditions: 101.33 kPa, Crystal, DSC

[Cu+2].[O-2] [copper(II) oxide]
molar heat capacity at constant pressure (300 K): 44.4 ± 22 J/K/mol | molar heat capacity at constant pressure (325 K): 45.8 ± 28 J/K/mol | molar heat capacity at constant pressure (350 K): 46.8 ± 28 J/K/mol | molar heat capacity at constant pressure (375 K): 47.7 ± 22 J/K/mol | molar heat capacity at constant pressure (400 K): 48.5 ± 26 J/K/mol | molar heat capacity at constant pressure (425 K): 49.2 ± 24 J/K/mol | molar heat capacity at constant pressure (450 K): 49.7 ± 28 J/K/mol | molar heat capacity at constant pressure (475 K): 50.3 ± 24 J/K/mol | molar heat capacity at constant pressure (500 K): 50.8 ± 26 J/K/mol | molar heat capacity at constant pressure (525 K): 51.2 ± 28 J/K/mol | molar heat capacity at constant pressure (550 K): 51.6 ± 26 J/K/mol | molar heat capacity at constant pressure (575 K): 51.9 ± 26 J/K/mol | molar heat capacity at constant pressure (600 K): 52.3 ± 22 J/K/mol | molar heat capacity at constant pressure (625 K): 52.6 ± 26 J/K/mol | molar heat capacity at constant pressure (650 K): 52.9 ± 28 J/K/mol | molar heat capacity at constant pressure (675 K): 53.2 ± 28 J/K/mol | molar heat capacity at constant pressure (700 K): 53.5 ± 24 J/K/mol | molar heat capacity at constant pressure (725 K): 53.8 ± 26 J/K/mol | molar heat capacity at constant pressure (750 K): 54 ± 28 J/K/mol | molar heat capacity at constant pressure (775 K): 54.3 ± 26 J/K/mol | molar heat capacity at constant pressure (800 K): 54.5 ± 24 J/K/mol | molar heat capacity at constant pressure (825 K): 54.7 ± 24 J/K/mol
